# According to patent US9150865B2 (priority 2010, dated 2015):
# Entries after “also recorded” stand apart in the source; their conditions may differ.
# Legend:
# BALB/c mice = conditions: mouse, in vivo
# ADAM10 [1] = target: T1, ADAM10 (Homo sapiens, UniProt O14672); format: cell-based
# rabbit red cells = format: cell-based
# ADAM10 [2] = target: T1, ADAM10; format: cell-based; remark: listed apart in the source
# [3] = test system: Human pulmonary artery endothelial cells (HPAECs); format: cell-based
# ADAM10 [4] = target: T1, ADAM10; format: cell-based; remark: listed apart in the source
# S. aureus strain Newman = test system: S. aureus strain Newman; parameters: species or system Staphylococcus aureus; conditions: in vivo, ip
# S. aureus Newman = test system: S. aureus Newman; parameters: species or system Staphylococcus aureus; conditions: in vivo
# C57BL/6J mice = conditions: mouse, in vivo
# A431 keratinocytes = format: cell-based
# S. aureus USA300/LAC = test system: S. aureus USA300/LAC; parameters: species or system Staphylococcus aureus; conditions: in vivo
# ADAM10 [5] = target: T1, ADAM10; format: cell-based; remark: listed apart in the source
# ADAM10 [6] = target: T1, ADAM10; format: cell-based; remark: listed apart in the source
# A549 cells = format: cell-based, human
# ADAM10 [7] = conditions: cited from earlier work
# ADAM10 [8] = target: T1, ADAM10; format: cell-based; remark: listed apart in the source
# T1 sequence (O14672 214-748 limits assumed): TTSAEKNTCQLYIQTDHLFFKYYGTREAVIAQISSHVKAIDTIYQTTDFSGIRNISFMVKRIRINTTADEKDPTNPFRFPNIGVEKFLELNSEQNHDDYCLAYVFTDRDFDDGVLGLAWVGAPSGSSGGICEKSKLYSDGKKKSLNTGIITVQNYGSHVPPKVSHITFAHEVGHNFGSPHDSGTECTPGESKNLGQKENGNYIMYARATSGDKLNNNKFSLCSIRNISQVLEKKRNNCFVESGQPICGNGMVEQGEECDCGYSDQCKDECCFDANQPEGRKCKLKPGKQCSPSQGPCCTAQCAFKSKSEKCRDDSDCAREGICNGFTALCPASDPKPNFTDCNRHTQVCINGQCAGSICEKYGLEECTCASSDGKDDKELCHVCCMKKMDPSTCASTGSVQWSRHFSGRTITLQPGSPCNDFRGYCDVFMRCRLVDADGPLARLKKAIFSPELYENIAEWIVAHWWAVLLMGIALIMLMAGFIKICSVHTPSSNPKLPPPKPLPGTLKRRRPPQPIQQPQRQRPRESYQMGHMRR
compound,measurement,setting,value
CNC(=O)[C@@H](NC(=O)[C@H](CCCc1ccccc1)[C@H](C)N(O)C=O)C(C)(C)C [GI254023X],vascular integrity / Evans blue dye extravasation,BALB/c mice,"enhanced vascular integrity, manifest by limited dye extravasation"
same,Hla-induced loss of E-cadherin expression and disruption of cell junctions,ADAM10 [1],could be prevented; also recorded: is inhibited
same,Hla-induced hemolysis,rabbit red cells,blunted hemolysis
same,Hla-induced VE-cadherin cleavage,ADAM10 [2],prevented VE-cadherin cleavage
same,Hla-mediated barrier disruption (ECIS),[3],complete protection of HPAECs from Hla-mediated barrier disruption
same,Hla-induced E-cadherin cleavage,ADAM10 [4],nearly abrogated Hla-induced E-cadherin cleavage
same,protection against lethal S. aureus pneumonia (mortality curves),S. aureus strain Newman,"protected from rapidly lethal S. aureus pneumonia, displaying an increase in time to death and survival among some animals; also recorded: protected against lethal pneumonia"
same,survival of lethal challenge,S. aureus Newman,all experimental animals succumbed to the lethal challenge
same,appearance of illness,S. aureus Newman; 200 mg/kg,less ill in appearance
same,time-to-death,"S. aureus Newman; iv, 200 mg/kg",prolongation of time-to-death
same,"accumulation of cells and proteinaceous edema in the alveolar space (BAL cell count, protein)",C57BL/6J mice,reduced the accumulation of both cells and proteinaceous edema in the alveolar space; also recorded: reduced alveolar exudates; also recorded: prevents Hla-induced lung epithelial barrier disruption in vivo
same,E-cadherin cleavage in response to Hla treatment in mice,C57BL/6J mice; ip,prevented E-cadherin cleavage in response to Hla treatment
same,epithelial barrier function upon toxin treatment (ECIS),A431 keratinocytes,preservation of full-length E-cadherin expression and epithelial barrier function
same,abscess size,S. aureus USA300/LAC,reduction in abscess size
same,dermonecrotic skin lesions,S. aureus USA300/LAC,did not demonstrate dermonecrotic skin lesions
same,skin breakdown (dermonecrosis) over the site of infection,S. aureus USA300/LAC,completely prevented skin breakdown over the site of infection
same,PLY-induced E-cadherin cleavage,ADAM10 [5],prevented PLY-induced E-cadherin cleavage
same,full-length E-cadherin expression upon toxin treatment,ADAM10 [6],preservation of full-length E-cadherin expression
same,toxin binding and oligomerization on the surface of A549 cells,A549 cells,markedly impaired toxin binding and subsequent oligomerization; also recorded: impaired toxin binding and oligomerization on A549 cells
C[C@H](CCC(=O)O)C[C@H](C)C[C@H](C)C(=O)/C=C(\O)[C@H](C)C[C@H](C)C/C=C/[C@@H](C)[C@@H](O)[C@@H](C)[C@@H](O)C[C@@H]1CC[C@@](C)([C@H]2CC[C@@](C)([C@@H](C)O)O2)O1 [Ionomycin],E-cadherin cleavage induced by agent alone,ADAM10 [4],stimulating E-cadherin cleavage; also recorded: E-cadherin CTFs were generated; also recorded: enhancing cleavage
same,induction of ADAM10 metalloprotease activity,ADAM10 [7],potently induces the metalloprotease activity of ADAM10
Methyl-β-cyclodextrin,Hla-induced E-cadherin cleavage,ADAM10 [4],abrogated metalloprotease activation and E-cadherin cleavage
same,Hla-induced metalloprotease activation,ADAM10 [8],abrogated metalloprotease activation
"N—(R)-[2-hydroxyaminocarbonyl)methyl]-4-methylpentanoyl-L-napthylalanyl-L-alanine, 2-aminoethyl amide [TAPI-1]",Hla-induced VE-cadherin cleavage,ADAM10 [2],prevented VE-cadherin cleavage
same,barrier function after Hla (ECIS),[3],maintenance of barrier function; also recorded: did not result in loss of barrier function
same,Hla-induced E-cadherin cleavage (Western blot),ADAM10 [4],impaired Hla-induced E-cadherin cleavage
same,surface expression of E-cadherin after Hla (immunofluorescence),ADAM10 [4],preserved surface expression of E-cadherin
